Experimental data: article PMC6747315, “Formation of α-Farnesene in Tea (Camellia sinensis) Leaves Induced by Herbivore-Derived Wounding and Its Effect on Neighboring Tea Plants” (International Journal of Molecular Sciences, 2019)

Target: T1, CsAFS (α-farnesene synthase) (Camellia sinensis, UniProt A0A3G3IRF8)
T1 construct: full-length ORF cloned in pET32a (EcoRV/SalI); cloning primers encode N-terminus MDCSKGML and C-terminus LIEPLKIN
T1 sequence (A0A3G3IRF8 1-560): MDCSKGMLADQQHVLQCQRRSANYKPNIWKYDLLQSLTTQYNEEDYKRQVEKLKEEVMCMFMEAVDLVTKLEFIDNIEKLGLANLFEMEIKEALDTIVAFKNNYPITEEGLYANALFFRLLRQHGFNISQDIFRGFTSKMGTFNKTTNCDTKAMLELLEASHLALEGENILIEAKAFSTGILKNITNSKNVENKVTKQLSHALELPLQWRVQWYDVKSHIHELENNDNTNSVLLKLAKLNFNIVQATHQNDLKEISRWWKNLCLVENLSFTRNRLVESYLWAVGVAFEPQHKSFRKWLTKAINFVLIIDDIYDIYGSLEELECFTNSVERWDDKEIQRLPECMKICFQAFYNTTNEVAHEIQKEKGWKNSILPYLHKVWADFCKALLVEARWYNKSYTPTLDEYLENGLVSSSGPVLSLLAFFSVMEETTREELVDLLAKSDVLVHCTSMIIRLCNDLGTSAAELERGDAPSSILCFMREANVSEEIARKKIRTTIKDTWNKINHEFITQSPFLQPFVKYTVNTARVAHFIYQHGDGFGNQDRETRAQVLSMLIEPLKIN
Experiment: SPME GC-MS product analysis
Format: biochemical
Conditions: 15 µg protein in 1 mL, 10 mM MgCl2, 1 mM MnCl2, 500 mM KCl, pH 7.0, 30 °C, 1 h

| SMILES | SPME GC-MS product analysis (product α-farnesene) | SPME GC-MS product analysis (product β-ocimene) |
| --- | --- | --- |
| CC(C)=CCC/C(C)=C/CC/C(C)=C/COP(=O)(O)OP(=O)(O)O [farnesyl diphosphate] | recombinant protein CsAFS converted substrate farnesyl diphosphate (FPP) into α-farnesene as the final product | – |
| CC(C)=CCC/C(C)=C/COP(=O)(O)OP(=O)(O)O [geranyl diphosphate] | – | with geranyl diphosphate (GPP) as substrate, the CsAFS enzyme produced only β-ocimene |
